Measurements as given in US11891401B2, “Solid forms of N-(4-fluoro-3-(6-(3-methylpyridin-2-yl)-[1,2,4]triazolo[1,5-a]pyrimidin-2-yl)phenyl)-2,4-dimethyloxazole-5-carboxamide” (NOVARTIS AG, priority 2018, dated 2024).
≈ marks a conversion by molar mass, not a printed value.

Legend:
Format in all cases: physicochemical
[1] = Solid-state chemical stability: degradation products by UPLC/HPLC after stress storage; settings: for DP % (Degradation Product), Bulk (UPLC): Solid state
Experimental: (§1) Compound I, Compound I fumaric acid co-crystals and amorphous Compound I fumaric acid samples (10 mg) were placed in an open vial at 50° C./75% RH and 80° C./75% RH chamber for one week. A same amount of sample was placed in a closed vial at 50° C. and 80° C. chamber for 1 week. The samples were exposed to 100 k Lux light for 12 h at 25° C. Solids were examined by XRPD for physical stability determination and by UPLC for chemical stability determination. The color of the samples was evaluated by visual observation. Table 5 compares the stability of Compound I and its various solid forms.

[2] = Solid-state physical stability: form change by XRPD after stress storage; settings: for Bulk (XRPD): Solid state
Experimental: as §1

[3] = Solubility in various media at 25° C. after 24 hours equilibration (UPLC); settings: for final pH of the sample (in parentheses): after 24 hours equilibration
[4] = Dynamic Vapor Sorption (DVS) moisture absorption / hygroscopicity; settings: for solid form after DVS: after DVS testing
[5] = Crystal form after grinding, compression and wet granulation; settings: compression and wet granulation (water and ethanol), listed as free form hydrate
[6] = Form after storage at 92% RH; settings: 24 hrs
[7] = Form after degradation at 160° C.
[8] = 50° C., 50° C./75& RH, 80° C. and 80° C./75% RH for one week
[9] = 1 week 50° C., closed container
[10] = 1 week 80° C., closed container

chemical stability in bulk [1, 8]: chemically stable | stability upon exposure to light ([1]; 1200 kLuxh light for 12 hrs): stable | DP % (Degradation Product), Bulk (UPLC) [1, 9]: 0.6% | DP % (Degradation Product), Bulk (UPLC) ([1]; 1 week 50° C./75% r.h.): 0.6% | DP % (Degradation Product), Bulk (UPLC) [1, 10]: 0.6% | DP % (Degradation Product), Bulk (UPLC) ([1]; 1 week 80° C./75% r.h.): 0.6% | DP % (Degradation Product), Amber vial (HPLC) ([1]; Xenon light (approx. 1200 kLuxh), amber vial): 0.8% | DP % (Degradation Product), Clear vial (HPLC) ([1]; Xenon light (approx. 1200 kLuxh), clear vial): 0.6% | form change in bulk [2, 8]: form changes were noticed | form obtained upon exposure to 75% RH humidity ([2]; 75% RH at both temperatures (50° C. and 80° C.), one week): a dihydrate was obtained | Bulk (XRPD) [2, 9]: no change | Bulk (XRPD) ([2]; 1 week 50° C./75% r.h.): change | Bulk (XRPD) [2, 10]: change | final pH of the sample (in parentheses) ([3]; 0.01N HCl pH 2.0): 2.10 | solubility ([3]; 0.1N HCl pH 1.0, 25° C., 24 hours equilibration): 232 µg/mL (≈ 523 µM) | final pH of the sample (in parentheses) ([3]; 0.1N HCl pH 1.0): 1.00 | solubility ([3]; FaSSIF pH 6.5, 25° C., 24 hours equilibration): 4 µg/mL (≈ 9.02 µM) | final pH of the sample (in parentheses) ([3]; FaSSIF pH 6.5): 6.31 | solubility ([3]; FeSSIF pH 5.8, 25° C., 24 hours equilibration): 6 µg/mL (≈ 13.5 µM) | final pH of the sample (in parentheses) ([3]; FeSSIF pH 5.8): 5.73 | solubility ([3]; SGF pH 2.0, 25° C., 24 hours equilibration): 29 µg/mL (≈ 65.4 µM) | final pH of the sample (in parentheses) ([3]; SGF pH 2.0): 1.99 | solubility ([3]; acetate buffer pH 4.7, 25° C., 24 hours equilibration): 2 µg/mL (≈ 4.51 µM) | final pH of the sample (in parentheses) ([3]; acetate buffer pH 4.7): 4.68 | solubility ([3]; borate buffer pH 10.0, 25° C., 24 hours equilibration): 2 µg/mL (≈ 4.51 µM) | final pH of the sample (in parentheses) ([3]; borate buffer pH 10.0): 8.58 | solubility ([3]; phosphate buffer pH 6.8, 25° C., 24 hours equilibration): 1 µg/mL (≈ 2.26 µM) | final pH of the sample (in parentheses) ([3]; phosphate buffer pH 6.8): 6.65 | solubility at 24 h ([3]; simulated gastric fluid, thermodynamic from solid, 0.01N HCl pH 2.0, 25° C., 24 hours equilibration): 17 µg/mL (≈ 38.3 µM) | solubility ([3]; water, 25° C., 24 hours equilibration): 9 µg/mL (≈ 20.3 µM) | final pH of the sample (in parentheses) ([3]; water): 8.18 | solid form after DVS ([4]; listed as Compound I free form): changes into a dihydrate | solid form after DVS ([4]; listed as free form hydrate): form change that is likely a dihydrate | moisture absorption by DVS ([4]; at 25° C., RH not stated): 8.9% | hygroscopicity ([4]; by DVS, listed as free form hydrate): hygroscopic | form after storage at 92% RH ([6]; listed as Compound I free form): changes into a dihydrate | form after storage at 92% RH ([6]; listed as free form hydrate): dihydrate | form after degradation at 160° C. [7]: converts to an amorphous form
SMILES: Cc1nc(C)c(C(=O)Nc2ccc(F)c(-c3nc4ncc(-c5ncccc5C)cn4n3)c2)o1 [Free Form, N-(4-fluoro-3-(6-(3-methylpyridin-2-yl)-[1,2,4]triazolo[1,5-a]pyrimidin-2-yl)phenyl)-2,4-dimethyloxazole-5-carboxamide]
form observed ([2]; under 50° C./75% RH): mixture of the free form hydrate and anhydrous modification | crystal form after grinding, compression and wet granulation [5]: converted to a different hydrate or a hydrate mixture
